Source: patent US11279737B2, “Antimicrobial peptide variants and uses thereof” (ANTINBIO, INC., priority 2019, dated 2022)
In brackets after ≈: the same amount, converted by molar mass. Where a SMILES comes first, the peptide text is derived from it. Bridges are numbered along the chain shown (N, C = ends).

How the values were obtained:
[1] = system: S. epidermidis ATCC 14990; conditions: for Minimal inhibitory concentration (MIC): ATCC 14990
S. aureus ATCC 6538 [2] = assay: inhibition zone assay; conditions: 10 μg peptide per hole, 37° C., 16-18 hours
[3] = system: S. aureus MRSA ATCC 43300; conditions: for Minimal inhibitory concentration (MIC): ATCC 43300; for antimicrobial activity compared to wild type hegrisin (in words): S. aureus MRSA ATCC 43300
S. aureus ATCC 6538 [4] = conditions: for Minimal inhibitory concentration (MIC): ATCC 6538; for antimicrobial activity compared to wild type hegrisin (in words): S. aureus ATCC 6538, lower MIC values
human erythrocytes = assay: hemolytic assay; type: cell-based; conditions: FIG. 2; for cell lysis (hemolysis) of human erythrocytes: peptide 0.5-500 μg/ml, 37° C., 60 minutes
Method: For the hemolysis assays, human erythrocytes were obtained from healthy donors, washed 3 times using sterilized PBS and re-suspended to a concentration of 2% (v/v) with PBS. The hegrisin, HCN2016-01 peptide, and plectasin (control) were diluted to concentrations of 500, 250, 125, 62.5, 32, 16, 8, 4, 2, 1, and 0.5 μg/ml. A 100 μL solution of each peptide and a 100 μL suspension of red blood cells were mixed and added to the wells of a 96-well plate. PBS was used as negative control and Triton X-100 was used as a positive control.
The samples were incubated at 37° C. for 60 minutes and gently stirred during the incubation period. Then, the samples were centrifuged at 2000 rpm for 5 minutes. A total of 100 μL of the supernatant in each well was transferred to a new 96-well plate and absorbance was measured at 490 nm using a microplate reader (Molecular Devices, USA).
For hemolysis assays, human erythrocytes were obtained from healthy donors, washed 3 times using sterilized PBS, and re-suspended to a concentration of 2% (v/v) with PBS. The HCN2016-01 peptide (SEQ ID NO: 2) and plectasin (control) were diluted to concentrations of 500; 250; 125; 62.5; 32; 16; 8; 4; 2; 1; and 0.5 μg/ml. A 100 μL of each peptide solution was mixed with a 100 μL solution of a red blood cell suspension and added to separate wells of a 96-well plate. PBS was used as negative control and Triton X-100 was used as a positive control. The samples were incubated at 37° C. for 60 minutes and gently stirred during the incubation period. The samples were then centrifuged at 2000 rpm for 5 minutes. A total of 100 μL of the supernatant in each well was transferred to a new 96-well plate and absorbance was measured at 490 nm using a microplate reader (Molecular Devices, USA).

Compound	Minimal inhibitory concentration (MIC) [1]	Activity (antimicrobial activity relative to unmodified hegrisin, zones of growth inhibition) (S. aureus ATCC 6538 [2])	Minimal inhibitory concentration (MIC) [3]	antimicrobial activity compared to wild type hegrisin (in words) [3]	Minimal inhibitory concentration (MIC) (S. aureus ATCC 6538 [4])	antimicrobial activity compared to wild type hegrisin (in words) (S. aureus ATCC 6538 [4])	change of cell lysis with rising concentration (human erythrocytes; concentration increased from 62.5 μg/ml to 500 μg/ml)	cell lysis (hemolysis) of human erythrocytes (human erythrocytes)	antimicrobial activity compared to wild type hegrisin (in words) ([1]; S. epidermidis ATCC 14990)
CC[C@H](C)[C@@H]1NC(=O)[C@H](CO)NC(=O)[C@H](CCCCN)NC(=O)[C@@H]2CSSC[C@@H](C(=O)N[C@@H](Cc3ccc(O)cc3)C(=O)O)NC(=O)[C@H](CCCCN)NC(=O)[C@@H]3CSSC[C@H](NC(=O)[C@@H]4CCCN4C(=O)[C@H](CCCCN)NC(=O)[C@H](CC(=O)O)NC(=O)[C@H](CC(N)=O)NC(=O)CNC(=O)CNC(=O)[C@H](Cc4ccccc4)NC(=O)[C@H]([C@@H](C)CC)NC(=O)[C@H]([C@@H](C)O)NC(=O)[C@@H](NC(=O)CNC(=O)[C@H](Cc4ccccc4)NC(=O)CN)CSSC[C@H](NC(=O)[C@H](Cc4ccc(O)cc4)NC(=O)CNC(=O)CNC(=O)[C@H](CCCCN)NC(=O)[C@H](Cc4ccc(O)cc4)NC(=O)CNC(=O)[C@H](CCCCN)NC1=O)C(=O)N[C@@H](CCCCN)C(=O)N[C@@H](C(C)C)C(=O)NCC(=O)NCC(=O)N[C@@H](C(C)C)C(=O)N3)C(=O)N[C@@H](Cc1c[nH]cn1)C(=O)N[C@@H](CCCNC(=N)N)C(=O)N[C@@H](Cc1c[nH]cn1)C(=O)N2 [HCN2016-03] (H-GFGCTIFGGNDKPCHRHCKSIKGYKGGYCKVGGVCKCY-OH; disulfide 4-29, 14-35, 18-37 (inferred); N-terminus and C-terminus assumed)	1.30 µg/mL (≈ 0.32 µM)	2	0.81 µg/mL (≈ 0.199 µM)	improved antimicrobial activity	1.33 µg/mL (≈ 0.327 µM)	improved antimicrobial activity			
plectasin: defensin antimicrobial peptide isolated from the mushroom Pseudoplectania nigrella; control in the hemolysis assay (GFGCNGPWDEDDMQCHNHCKSIKGYKGGYCAKGGFVCKCY; PLECTASIN)							increased significantly	lysis at nearly all concentrations	
CC[C@H](C)[C@@H]1NC(=O)CNC(=O)CNC(=O)[C@H](CC(C)C)NC(=O)[C@H](CCCCN)NC(=O)[C@@H]2CSSC[C@H](NC(=O)[C@H](CO)NC(=O)[C@H](Cc3c[nH]c4ccccc34)NC(=O)CN)C(=O)NCC(=O)N[C@@H](Cc3ccccc3)C(=O)N[C@@H](Cc3ccccc3)C(=O)NCC(=O)NCC(=O)N[C@@H](CC(N)=O)C(=O)N[C@@H](CC(=O)O)C(=O)N[C@@H](CCC(=O)O)C(=O)N3CCC[C@H]3C(=O)N[C@H]3CSSC[C@H](NC1=O)C(=O)N[C@@H](CCCCN)C(=O)N[C@H](C(=O)N[C@@H](Cc1ccc(O)cc1)C(=O)O)CSSC[C@H](NC(=O)[C@H](Cc1c[nH]cn1)NC(=O)[C@H](CCC(N)=O)NC(=O)[C@H](Cc1c[nH]cn1)NC3=O)C(=O)N[C@@H](CCCCN)C(=O)N[C@@H](CO)C(=O)N[C@@H]([C@@H](C)CC)C(=O)N[C@@H](CCCNC(=N)N)C(=O)NCC(=O)N[C@@H](Cc1ccc(O)cc1)C(=O)N[C@@H](CCCNC(=N)N)C(=O)NCC(=O)NCC(=O)N[C@@H](Cc1ccc(O)cc1)C(=O)N2 [HCN2016-04] (H-GWSCGFFGGNDEPCHQHCKSIRGYRGGYCKLGGICKCY-OH; disulfide 4-29, 14-35, 18-37 (inferred); N-terminus and C-terminus assumed)	0.33 µg/mL (≈ 0.0789 µM)	2	0.86 µg/mL (≈ 0.206 µM)	improved antimicrobial activity	0.40 µg/mL (≈ 0.0956 µM)	improved antimicrobial activity			improved antimicrobial activity
CC[C@H](C)[C@@H]1NC(=O)[C@H](CO)NC(=O)[C@H](CCCCN)NC(=O)[C@@H]2CSSC[C@@H](C(=O)N[C@@H](Cc3ccc(O)cc3)C(=O)O)NC(=O)[C@H](CCCCN)NC(=O)[C@@H]3CSSC[C@H](NC(=O)[C@@H]4CCCN4C(=O)[C@H](CCCCN)NC(=O)[C@H](CC(=O)O)NC(=O)[C@H](CC(N)=O)NC(=O)CNC(=O)CNC(=O)[C@H](Cc4c[nH]c5ccccc45)NC(=O)[C@H]([C@@H](C)CC)NC(=O)[C@H]([C@@H](C)O)NC(=O)[C@@H](NC(=O)CNC(=O)[C@H](Cc4ccccc4)NC(=O)CN)CSSC[C@H](NC(=O)[C@H](Cc4ccc(O)cc4)NC(=O)CNC(=O)CNC(=O)[C@H](CCCCN)NC(=O)[C@H](Cc4ccc(O)cc4)NC(=O)CNC(=O)[C@H](CCCCN)NC1=O)C(=O)N[C@@H](CCCCN)C(=O)N[C@@H](C(C)C)C(=O)NCC(=O)NCC(=O)N[C@@H](C(C)C)C(=O)N3)C(=O)N[C@@H](Cc1c[nH]cn1)C(=O)N[C@@H](CCCNC(=N)N)C(=O)N[C@@H](Cc1c[nH]cn1)C(=O)N2 [Hegrisin, reference compound] (H-GFGCTIWGGNDKPCHRHCKSIKGYKGGYCKVGGVCKCY-OH; disulfide 4-29, 14-35, 18-37; N-terminus and C-terminus assumed)	0.38 µg/mL (≈ 0.0926 µM)	1	1.34 µg/mL (≈ 0.326 µM)		1.67 µg/mL (≈ 0.407 µM)			no significant lysis	
CC[C@H](C)[C@@H]1NC(=O)CNC(=O)CNC(=O)[C@H](Cc2ccccc2)NC(=O)[C@H](CCCCN)NC(=O)[C@@H]2CSSC[C@H](NC(=O)[C@H](CO)NC(=O)[C@H](Cc3c[nH]c4ccccc34)NC(=O)CN)C(=O)N[C@@H](CC(N)=O)C(=O)N[C@@H]([C@@H](C)CC)C(=O)N[C@@H](Cc3c[nH]c4ccccc34)C(=O)NCC(=O)NCC(=O)N[C@@H](CC(N)=O)C(=O)N[C@@H](CC(=O)O)C(=O)N[C@@H](CCC(=O)O)C(=O)N3CCC[C@H]3C(=O)N[C@H]3CSSC[C@H](NC1=O)C(=O)N[C@@H](CCCCN)C(=O)N[C@H](C(=O)N[C@@H](Cc1ccc(O)cc1)C(=O)O)CSSC[C@H](NC(=O)[C@H](Cc1c[nH]cn1)NC(=O)[C@H](CCC(N)=O)NC(=O)[C@H](Cc1c[nH]cn1)NC3=O)C(=O)N[C@@H](CCCCN)C(=O)N[C@@H](CO)C(=O)N[C@@H]([C@@H](C)CC)C(=O)N[C@@H](CCCNC(=N)N)C(=O)NCC(=O)N[C@@H](Cc1ccc(O)cc1)C(=O)N[C@@H](CCCNC(=N)N)C(=O)NCC(=O)NCC(=O)N[C@@H](Cc1ccc(O)cc1)C(=O)N2 [HCN2016-02] (H-GWSCNIWGGNDEPCHQHCKSIRGYRGGYCKFGGICKCY-OH; disulfide 4-29, 14-35, 18-37 (inferred); N-terminus and C-terminus assumed)	1.40 µg/mL (≈ 0.327 µM)	2	2.80 µg/mL (≈ 0.654 µM)		1.40 µg/mL (≈ 0.327 µM)	improved antimicrobial activity			
CC[C@H](C)[C@@H]1NC(=O)CNC(=O)CNC(=O)[C@H](Cc2ccccc2)NC(=O)[C@H](CCCCN)NC(=O)[C@@H]2CSSC[C@H](NC(=O)CNC(=O)[C@H](Cc3c[nH]c4ccccc34)NC(=O)CN)C(=O)NCC(=O)N[C@@H](Cc3ccccc3)C(=O)N[C@@H](Cc3ccccc3)C(=O)NCC(=O)NCC(=O)N[C@@H](CC(N)=O)C(=O)N[C@@H](CC(=O)O)C(=O)N[C@@H](CCC(=O)O)C(=O)N3CCC[C@H]3C(=O)N[C@H]3CSSC[C@H](NC1=O)C(=O)N[C@@H](CCCCN)C(=O)N[C@H](C(=O)N[C@@H](Cc1ccc(O)cc1)C(=O)O)CSSC[C@H](NC(=O)[C@H](Cc1c[nH]cn1)NC(=O)[C@H](CCC(N)=O)NC(=O)[C@H](Cc1c[nH]cn1)NC3=O)C(=O)N[C@@H](CCCCN)C(=O)N[C@@H](CO)C(=O)N[C@@H]([C@@H](C)CC)C(=O)N[C@@H](CCCNC(=N)N)C(=O)NCC(=O)N[C@@H](Cc1ccc(O)cc1)C(=O)N[C@@H](CCCNC(=N)N)C(=O)NCC(=O)NCC(=O)N[C@@H](Cc1ccc(O)cc1)C(=O)N2 [HCN2016-05] (H-GWGCGFFGGNDEPCHQHCKSIRGYRGGYCKFGGICKCY-OH; disulfide 4-29, 14-35, 18-37 (inferred); N-terminus and C-terminus assumed)	2.80 µg/mL (≈ 0.669 µM)	2	2.88 µg/mL (≈ 0.688 µM)		1.44 µg/mL (≈ 0.344 µM)	improved antimicrobial activity			
